Biological target: T1, N-half co-expressed with the K1978M C-half mutant of ABCR (Homo sapiens, UniProt P78363, K1978M)
T1 construct: The cDNAs coding for the N-half (amino acids 1-1325) and C-half (amino acids 1326-2273) of ABCR; made in house
T1 sequence (P78363 1-1325): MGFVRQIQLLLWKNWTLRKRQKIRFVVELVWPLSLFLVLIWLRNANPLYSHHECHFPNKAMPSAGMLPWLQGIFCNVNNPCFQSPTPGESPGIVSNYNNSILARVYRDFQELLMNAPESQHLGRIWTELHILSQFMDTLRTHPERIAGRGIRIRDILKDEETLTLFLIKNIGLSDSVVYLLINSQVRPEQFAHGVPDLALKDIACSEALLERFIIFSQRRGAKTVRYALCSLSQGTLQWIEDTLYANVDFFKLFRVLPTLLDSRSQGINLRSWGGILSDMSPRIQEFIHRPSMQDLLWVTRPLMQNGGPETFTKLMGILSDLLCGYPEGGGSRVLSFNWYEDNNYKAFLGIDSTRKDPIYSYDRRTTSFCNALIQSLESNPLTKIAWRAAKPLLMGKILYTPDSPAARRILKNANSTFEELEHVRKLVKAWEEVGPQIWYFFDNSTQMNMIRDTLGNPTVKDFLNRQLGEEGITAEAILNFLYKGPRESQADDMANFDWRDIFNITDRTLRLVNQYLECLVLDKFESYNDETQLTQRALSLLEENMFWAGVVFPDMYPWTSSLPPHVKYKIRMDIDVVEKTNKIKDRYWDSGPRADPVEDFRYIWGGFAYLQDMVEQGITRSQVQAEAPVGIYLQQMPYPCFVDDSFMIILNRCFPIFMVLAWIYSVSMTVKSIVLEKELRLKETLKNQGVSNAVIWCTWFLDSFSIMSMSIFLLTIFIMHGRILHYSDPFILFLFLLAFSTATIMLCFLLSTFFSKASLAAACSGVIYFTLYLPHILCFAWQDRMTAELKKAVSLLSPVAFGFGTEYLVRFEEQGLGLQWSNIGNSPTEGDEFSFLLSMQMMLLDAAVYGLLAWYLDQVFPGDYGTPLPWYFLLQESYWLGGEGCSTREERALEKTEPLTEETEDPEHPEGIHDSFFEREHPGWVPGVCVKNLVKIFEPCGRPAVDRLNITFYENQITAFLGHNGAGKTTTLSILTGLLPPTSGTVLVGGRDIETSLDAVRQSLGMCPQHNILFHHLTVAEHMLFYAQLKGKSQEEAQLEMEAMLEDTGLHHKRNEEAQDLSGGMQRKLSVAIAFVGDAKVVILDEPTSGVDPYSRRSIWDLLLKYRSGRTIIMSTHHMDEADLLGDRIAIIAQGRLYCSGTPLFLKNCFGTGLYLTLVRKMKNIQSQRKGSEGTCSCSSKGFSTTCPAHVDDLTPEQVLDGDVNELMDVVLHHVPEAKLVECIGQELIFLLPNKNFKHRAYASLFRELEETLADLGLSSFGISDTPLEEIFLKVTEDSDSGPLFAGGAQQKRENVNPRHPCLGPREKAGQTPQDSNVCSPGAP
T1 sequence (P78363 1326-2273 K1978M): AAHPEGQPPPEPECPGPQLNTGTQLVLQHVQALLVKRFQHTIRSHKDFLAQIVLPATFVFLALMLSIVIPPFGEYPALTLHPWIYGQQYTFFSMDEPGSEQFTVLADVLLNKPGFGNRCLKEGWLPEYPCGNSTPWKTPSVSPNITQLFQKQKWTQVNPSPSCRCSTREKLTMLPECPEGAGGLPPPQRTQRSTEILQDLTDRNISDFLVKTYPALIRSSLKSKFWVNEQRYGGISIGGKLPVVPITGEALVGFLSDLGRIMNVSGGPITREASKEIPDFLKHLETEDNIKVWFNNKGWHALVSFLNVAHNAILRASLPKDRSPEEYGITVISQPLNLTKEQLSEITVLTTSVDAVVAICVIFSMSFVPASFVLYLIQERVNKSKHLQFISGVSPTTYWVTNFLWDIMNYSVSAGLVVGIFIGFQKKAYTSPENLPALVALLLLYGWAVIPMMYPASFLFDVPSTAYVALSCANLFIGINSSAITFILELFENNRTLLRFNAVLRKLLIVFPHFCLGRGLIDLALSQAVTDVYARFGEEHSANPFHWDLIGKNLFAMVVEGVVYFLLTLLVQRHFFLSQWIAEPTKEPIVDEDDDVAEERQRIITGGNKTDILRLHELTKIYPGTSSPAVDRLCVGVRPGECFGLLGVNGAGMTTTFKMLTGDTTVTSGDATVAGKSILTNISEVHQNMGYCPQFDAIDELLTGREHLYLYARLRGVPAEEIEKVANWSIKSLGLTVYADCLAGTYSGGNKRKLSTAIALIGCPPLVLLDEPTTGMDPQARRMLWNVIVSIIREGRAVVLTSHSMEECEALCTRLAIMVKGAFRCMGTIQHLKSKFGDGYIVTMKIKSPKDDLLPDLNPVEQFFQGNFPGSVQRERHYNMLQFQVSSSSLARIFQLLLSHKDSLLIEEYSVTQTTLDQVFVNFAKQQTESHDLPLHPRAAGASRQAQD
Assay: ATPase activity of Walker A lysine-to-methionine mutants
Assay type: biochemical
Settings: 50 μM all-trans retinal
Experimental: FIG. 4. Lysine to methionine Walker A mutations in ABCR abolish ATP hydrolysis but not ATP binding. A. ATPase activity was measured in the absence (white bars) or presence of 50 μM all-trans retinal (grey bars). WT, wild-type; K969M in NBD1; K1978M in NBD2; MM, K969M/K1978M double mutant; NCM, N-half co-expressed with C-half containing a K1978M mutation. B. ATP photoaffinity labeling was carried out by irradiating membranes from COS-1 cells expressing wild-type (WT), K969M, K1978M, or K969M/K1978M double mutant (MM) with 3 μM 8-azido-[α-^32P]ATp. The labeled protein was isolated with Rim3F4-Sepharose and separated on SDS gels. Left panel: gel stained with Coomassie blue. Right panel: corresponding ^32P labeling obtained with a phosphorimager. All mutant proteins were labeled with 8-azido-[α-^32P]ATP, but the double mutant bound less nucleotide.
ATPase activity was measured as described previously (Ahn, J., Wong, J. T., and Molday, R. S. (2000) J Biol Chem 275(27), 20399-405) using 50 μM [α^32P]ATP and thin layer chromatography. The all-trans retinal concentration was determined spectrophotometrically (λ383 nm=42.88 mM^−1 cm^−1). Protein concentration was estimated from the eluate before reconstitution by laser densitometry of Coomassie blue stained gels using bovine serum albumin as a standard. […]

retinal-stimulated ATPase activity: abolished
Compound: CC1=C(/C=C/C(C)=C/C=C/C(C)=C/C=O)C(C)(C)CCC1 [all-trans retinal]
